Measured values from US12180084B2, “Cerium (III) carbonate formulations” (THE REGENTS OF THE UNIVERSITY OF CALIFORNIA, priority 2019, dated 2024).

Assay: MB dye photodegradation in ZnO-based sunscreen film (Neutrogena Sheer Zinc Face Mineral Sunscreen SPF 50)
Procedure: A commercial ZnO-based sunscreen (Neutrogena Sheer Zinc Face™ Mineral Sunscreen SPF 50 consisting of 21.6% of ZnO solid as the only listed active ingredient) was mixed with Methylene Blue (MB) organic dye as follows. In a plastic cup, (10 g capacity; obtained from Flacktek Inc. USA), sunscreen (3 g; Neutrogena Sheer Zinc Face™ Mineral Sunscreen SPF 50) and an aqueous solution of 10^−3 M MB dye (0.6 mL) was mixed with a spatula for 3 minutes. Immediately afterwards, the mixture was high sheared in a Flactek high-speed mixer at 3500 rpm for 3 min. […] These wet drawn down coupons were treated with UV radiation in a photoreactor, without drying, for varying times and were subsequently directly extracted. The extraction employed ethanol solvent to remove MB dye and permit its quantification prior/post UV radiation exposure, so as to determine the extent of MB dye degradation by subtraction. Specifically, to accomplish this, two small strips (100 mg of each) were cut from the wet drawn-down coupons with a scissor/sharp blade so as to not smudge the film of applied sunscreen, and these strips were subsequently exposed to UV radiation in a photoreactor. The photoreactor was equipped with 14 UV-lamps of 254 nm wavelength and delivering a power of 145-155 lux for 4 h. The relative humidity during UV-exposure was controlled to be 100% by placing a water-filled Petri dish (200 mL capacity) in the photoreactor chamber for at least 16 h prior to start of photocatalysis experiment. […] This resulting clear ethanol solution of MB dye was used for measurement of the MB dye concentration UV-visible spectrophotometry, using the absorbance maximum at 654 nm. A control experiment was similarly performed to quantify amount of MB dye from sunscreen films which never underwent UV-radiation exposure (t=0 time point). […] The extent of dye photodegradation was determined by calculating the percentage of decrease in the absorbance intensity of dye at the wavelength of maximum absorption. […]

- % of MB dye photodegradation after 4 h of UV irradiation in photoreactor (0.5 wt. % added agent relative to sunscreen weight): 36%±2
- % of MB dye photodegradation after 4 h of UV irradiation in photoreactor (0.5 wt. % added agent relative to sunscreen weight, listed as Ce2(CO3)3•6H2O synthesized according to Example 3): 36 ± 2%
- % of MB dye photodegradation after 4 h of UV irradiation in photoreactor (1.5 wt. % added agent relative to sunscreen weight): 25%±2
Structure (SMILES): O.O.O.O.O.O.O=C([O-])[O-].O=C([O-])[O-].O=C([O-])[O-].[Ce+3].[Ce+3] [Ce2(CO3)3·6H2O]
